Measured values taken from ChEMBL document CHEMBL1155150 (Antimicrob Agents Chemother, 2007).
≈ marks a conversion by molar mass, not a printed value.

Experiments:
Yersinia pestis = assay: Antibacterial activity against Yersinia pestis delta CO92 by broth macrodilution method; assay type: functional
Homo sapiens [1] = assay: Free AUC (0 to 24 hrs) in human plasma at 500 mg, po; assay type: ADME, organism-based; details: in vivo
Homo sapiens [2] = assay: Free Cmax in human at 500 mg, po; assay type: ADME, organism-based; details: in vivo
[3] = Half life in human plasma at 500 mg, po; assay type: ADME, organism-based
Homo sapiens [4] = assay: Free Cmax in human at 1 g, iv; assay type: ADME, organism-based; details: in vivo
[5] = Half life in human plasma at 1 g, iv; assay type: ADME, organism-based
Homo sapiens [6] = assay: Free Cmin in human at 1 g, iv; assay type: ADME, organism-based; details: in vivo

Structure (SMILES)	MBC (Yersinia pestis)	MIC (Yersinia pestis)	fAUC (Homo sapiens [1])	fCmax (Homo sapiens [2])	half-life [3]	fCmax (Homo sapiens [4])	half-life [5]	fCmin (Homo sapiens [6])
C[C@H]1COc2c(N3CCN(C)CC3)c(F)cc3c(=O)c(C(=O)O)cn1c23.C[C@H]1COc2c(N3CCN(C)CC3)c(F)cc3c(=O)c(C(=O)O)cn1c23.O [LEVOFLOXACIN]	0.125 µg/mL	0.06 µg/mL	36000 ng·h/mL	3.6 mg/L	7 h			
[H]/N=C(/N)N[C@H]1[C@H](O)[C@@H](O)[C@H](O[C@@H]2O[C@@H](C)[C@](O)(C=O)[C@H]2O[C@@H]2O[C@@H](CO)[C@H](O)[C@@H](O)[C@@H]2NC)[C@@H](N/C(N)=N\[H])[C@@H]1O [STREPTOMYCIN]	2 µg/mL (≈ 3.44 µM)	2 µg/mL (≈ 3.44 µM)				38 mg/L	2.5 h	2 mg/L
